Source: PubChem BioAssay AID1963837 (Molecular Pharmacology Branch, DTP, NCI, 2024)

Test system: 843126-344-R-J1-PDC complex spheroid viability
Assay: Anticancer human tumor 843126-344-R-J1-PDC patient-derived melanoma cell line growth inhibition [POLQ]
Details: second compound 3.16 µM; first compound 0.0316 µM; active compounds read low
Method in brief: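 Complex spheroid viability model combining PDC tumour cells with endothelial (HUVEC) and MSC stromal cells. Novobiocin, ART-558 or RP6685 were tested singly and in combination with standard and investigational anticancer drugs. Each was titrated in half-log steps from near clinical Cmax, or from 10 microM where Cmax was unknown.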
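Also: spheroids exposed to drugs for seven days before readout.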

Q: For C=CCn1c(=O)c2cnc(Nc3ccc(N4CCN(C)CC4)cc3)nc2n1-c1cccc(C(C)(C)O)n1 + Nc1ccc(C#CCN(C(=O)Cc2ncc(C(F)(F)F)cc2C(F)(F)F)c2ccc(F)cc2)nn1, which viability, T/C is on record?
A: The viability, T/C was 92.5%.

Q: Nc1ccn(C2OC(CO)C(O)C2(F)F)c(=O)n1 (configuration not stated) + Cc1cccc(N(C)C(=O)C2C(O)CCN2c2nc(C)cc(C(F)(F)F)c2C#N)c1 was tested. Which viability, T/C did it give?
A: Its viability, T/C is 38.7%.

Q: For C#Cc1c(F)ccc2cc(O)cc(-c3ncc4c(N5CC6CCC(C5)N6)nc(OCC56CCCN5CC(F)C6)nc4c3F)c12 (configuration not stated) + Cc1cccc(N(C)C(=O)C2C(O)CCN2c2nc(C)cc(C(F)(F)F)c2C#N)c1, which viability, T/C is on record?
A: Its viability, T/C is 83.5%.

Same assay, conditions: second compound 3.16 µM; first compound 0.1 µM; active compounds read low

Q: How did the viability, T/C turn out when CCc1c2c(nc3ccc(O)cc13)-c1cc3c(c(=O)n1C2)COC(=O)[C@]3(O)CC + Nc1ccc(C#CCN(C(=O)Cc2ncc(C(F)(F)F)cc2C(F)(F)F)c2ccc(F)cc2)nn1 was run?
A: The viability, T/C was 72.5%.

Q: How did the viability, T/C turn out when CCc1c2c(nc3ccc(O)cc13)-c1cc3c(c(=O)n1C2)COC(=O)[C@]3(O)CC + Cc1cccc(N(C)C(=O)C2C(O)CCN2c2nc(C)cc(C(F)(F)F)c2C#N)c1 was run?
A: Its viability, T/C is 67.7%.

Q: Which viability, T/C does the source give for CCCS(=O)(=O)Nc1ccc(F)c(C(=O)c2c[nH]c3ncc(-c4ccc(Cl)cc4)cc23)c1F + COC1C(OC(N)=O)C(O)C(Oc2ccc3c(O)c(NC(=O)c4ccc(O)c(CC=C(C)C)c4)c(=O)oc3c2C)OC1(C)C here?
A: Its viability, T/C is 77.9%.

Q: Which viability, T/C does the source give for COc1cc2cc(C(=O)CCC(=O)O)sc2cc1OC + Cc1cccc(N(C)C(=O)C2C(O)CCN2c2nc(C)cc(C(F)(F)F)c2C#N)c1 here?
A: Its viability, T/C is 83%.

Q: For C=CCn1c(=O)c2cnc(Nc3ccc(N4CCN(C)CC4)cc3)nc2n1-c1cccc(C(C)(C)O)n1 + Nc1ccc(C#CCN(C(=O)Cc2ncc(C(F)(F)F)cc2C(F)(F)F)c2ccc(F)cc2)nn1, which viability, T/C is on record?
A: Its viability, T/C is 106%.

Q: With Nc1ccn(C2OC(CO)C(O)C2(F)F)c(=O)n1 (configuration not stated) + Cc1cccc(N(C)C(=O)C2C(O)CCN2c2nc(C)cc(C(F)(F)F)c2C#N)c1 as the compound, how does the viability, T/C read?
A: The viability, T/C was 43.6%.

Q: Which viability, T/C does the source give for C#Cc1c(F)ccc2cc(O)cc(-c3ncc4c(N5CC6CCC(C5)N6)nc(OCC56CCCN5CC(F)C6)nc4c3F)c12 (configuration not stated) + Cc1cccc(N(C)C(=O)C2C(O)CCN2c2nc(C)cc(C(F)(F)F)c2C#N)c1 here?
A: Its viability, T/C is 80.3%.

Same assay, conditions: second compound 3.16 µM; first compound 0.316 µM; active compounds read low

Q: For CCc1c2c(nc3ccc(O)cc13)-c1cc3c(c(=O)n1C2)COC(=O)[C@]3(O)CC + Nc1ccc(C#CCN(C(=O)Cc2ncc(C(F)(F)F)cc2C(F)(F)F)c2ccc(F)cc2)nn1, which viability, T/C is on record?
A: The viability, T/C was 63.3%.

Q: For CCc1c2c(nc3ccc(O)cc13)-c1cc3c(c(=O)n1C2)COC(=O)[C@]3(O)CC + Cc1cccc(N(C)C(=O)C2C(O)CCN2c2nc(C)cc(C(F)(F)F)c2C#N)c1, which viability, T/C is on record?
A: The viability, T/C was 66.1%.

Q: CCCS(=O)(=O)Nc1ccc(F)c(C(=O)c2c[nH]c3ncc(-c4ccc(Cl)cc4)cc23)c1F + COC1C(OC(N)=O)C(O)C(Oc2ccc3c(O)c(NC(=O)c4ccc(O)c(CC=C(C)C)c4)c(=O)oc3c2C)OC1(C)C was tested. Which viability, T/C did it give?
A: Its viability, T/C is 91.2%.

Q: For COc1cc2cc(C(=O)CCC(=O)O)sc2cc1OC + Cc1cccc(N(C)C(=O)C2C(O)CCN2c2nc(C)cc(C(F)(F)F)c2C#N)c1, which viability, T/C is on record?
A: Its viability, T/C is 98.5%.

Q: For C=CCn1c(=O)c2cnc(Nc3ccc(N4CCN(C)CC4)cc3)nc2n1-c1cccc(C(C)(C)O)n1 + Nc1ccc(C#CCN(C(=O)Cc2ncc(C(F)(F)F)cc2C(F)(F)F)c2ccc(F)cc2)nn1, which viability, T/C is on record?
A: Its viability, T/C is 75%.

Q: With Nc1ccn(C2OC(CO)C(O)C2(F)F)c(=O)n1 (configuration not stated) + Cc1cccc(N(C)C(=O)C2C(O)CCN2c2nc(C)cc(C(F)(F)F)c2C#N)c1 as the compound, how does the viability, T/C read?
A: Its viability, T/C is 44%.

Q: For C#Cc1c(F)ccc2cc(O)cc(-c3ncc4c(N5CC6CCC(C5)N6)nc(OCC56CCCN5CC(F)C6)nc4c3F)c12 (configuration not stated) + Cc1cccc(N(C)C(=O)C2C(O)CCN2c2nc(C)cc(C(F)(F)F)c2C#N)c1, which viability, T/C is on record?
A: Its viability, T/C is 87.3%.

Same assay, conditions: second compound 3.16 µM; first compound 1 µM; active compounds read low

Q: With CCc1c2c(nc3ccc(O)cc13)-c1cc3c(c(=O)n1C2)COC(=O)[C@]3(O)CC + Nc1ccc(C#CCN(C(=O)Cc2ncc(C(F)(F)F)cc2C(F)(F)F)c2ccc(F)cc2)nn1 as the compound, how does the viability, T/C read?
A: Its viability, T/C is 52.2%.

Q: With CCc1c2c(nc3ccc(O)cc13)-c1cc3c(c(=O)n1C2)COC(=O)[C@]3(O)CC + Cc1cccc(N(C)C(=O)C2C(O)CCN2c2nc(C)cc(C(F)(F)F)c2C#N)c1 as the compound, how does the viability, T/C read?
A: The viability, T/C was 45.7%.

Q: Which viability, T/C does the source give for CCCS(=O)(=O)Nc1ccc(F)c(C(=O)c2c[nH]c3ncc(-c4ccc(Cl)cc4)cc23)c1F + COC1C(OC(N)=O)C(O)C(Oc2ccc3c(O)c(NC(=O)c4ccc(O)c(CC=C(C)C)c4)c(=O)oc3c2C)OC1(C)C here?
A: The viability, T/C was 72.6%.

Q: For COc1cc2cc(C(=O)CCC(=O)O)sc2cc1OC + Cc1cccc(N(C)C(=O)C2C(O)CCN2c2nc(C)cc(C(F)(F)F)c2C#N)c1, which viability, T/C is on record?
A: Its viability, T/C is 98.4%.

Q: C=CCn1c(=O)c2cnc(Nc3ccc(N4CCN(C)CC4)cc3)nc2n1-c1cccc(C(C)(C)O)n1 + Nc1ccc(C#CCN(C(=O)Cc2ncc(C(F)(F)F)cc2C(F)(F)F)c2ccc(F)cc2)nn1 was tested. Which viability, T/C did it give?
A: Its viability, T/C is 59.8%.

Q: With Nc1ccn(C2OC(CO)C(O)C2(F)F)c(=O)n1 (configuration not stated) + Cc1cccc(N(C)C(=O)C2C(O)CCN2c2nc(C)cc(C(F)(F)F)c2C#N)c1 as the compound, how does the viability, T/C read?
A: The viability, T/C was 49.3%.

Q: C#Cc1c(F)ccc2cc(O)cc(-c3ncc4c(N5CC6CCC(C5)N6)nc(OCC56CCCN5CC(F)C6)nc4c3F)c12 (configuration not stated) + Cc1cccc(N(C)C(=O)C2C(O)CCN2c2nc(C)cc(C(F)(F)F)c2C#N)c1 was tested. Which viability, T/C did it give?
A: The viability, T/C was 93.7%.

Same assay, conditions: second compound 3.16 µM; first compound 3.16 µM; active compounds read low

Q: How did the viability, T/C turn out when CCCS(=O)(=O)Nc1ccc(F)c(C(=O)c2c[nH]c3ncc(-c4ccc(Cl)cc4)cc23)c1F + COC1C(OC(N)=O)C(O)C(Oc2ccc3c(O)c(NC(=O)c4ccc(O)c(CC=C(C)C)c4)c(=O)oc3c2C)OC1(C)C was run?
A: Its viability, T/C is 77.9%.

Q: For COc1cc2cc(C(=O)CCC(=O)O)sc2cc1OC + Cc1cccc(N(C)C(=O)C2C(O)CCN2c2nc(C)cc(C(F)(F)F)c2C#N)c1, which viability, T/C is on record?
A: The viability, T/C was 96.3%.

Q: With Nc1ccn(C2OC(CO)C(O)C2(F)F)c(=O)n1 (configuration not stated) + Cc1cccc(N(C)C(=O)C2C(O)CCN2c2nc(C)cc(C(F)(F)F)c2C#N)c1 as the compound, how does the viability, T/C read?
A: Its viability, T/C is 34.9%.

Q: Which viability, T/C does the source give for C#Cc1c(F)ccc2cc(O)cc(-c3ncc4c(N5CC6CCC(C5)N6)nc(OCC56CCCN5CC(F)C6)nc4c3F)c12 (configuration not stated) + Cc1cccc(N(C)C(=O)C2C(O)CCN2c2nc(C)cc(C(F)(F)F)c2C#N)c1 here?
A: Its viability, T/C is 82.7%.

Same assay, conditions: second compound 3.16 µM; first compound 10 µM; active compounds read low

Q: CCCS(=O)(=O)Nc1ccc(F)c(C(=O)c2c[nH]c3ncc(-c4ccc(Cl)cc4)cc23)c1F + COC1C(OC(N)=O)C(O)C(Oc2ccc3c(O)c(NC(=O)c4ccc(O)c(CC=C(C)C)c4)c(=O)oc3c2C)OC1(C)C was tested. Which viability, T/C did it give?
A: Its viability, T/C is 77.2%.

Q: Which viability, T/C does the source give for COc1cc2cc(C(=O)CCC(=O)O)sc2cc1OC + Cc1cccc(N(C)C(=O)C2C(O)CCN2c2nc(C)cc(C(F)(F)F)c2C#N)c1 here?
A: The viability, T/C was 82.3%.

Q: How did the viability, T/C turn out when Nc1ccn(C2OC(CO)C(O)C2(F)F)c(=O)n1 (configuration not stated) + Cc1cccc(N(C)C(=O)C2C(O)CCN2c2nc(C)cc(C(F)(F)F)c2C#N)c1 was run?
A: The viability, T/C was 36.6%.

Q: How did the viability, T/C turn out when C#Cc1c(F)ccc2cc(O)cc(-c3ncc4c(N5CC6CCC(C5)N6)nc(OCC56CCCN5CC(F)C6)nc4c3F)c12 (configuration not stated) + Cc1cccc(N(C)C(=O)C2C(O)CCN2c2nc(C)cc(C(F)(F)F)c2C#N)c1 was run?
A: The viability, T/C was 69.8%.

Same assay, conditions: second compound 10 µM; first compound 0.00316 µM; active compounds read low

Q: CCc1c2c(nc3ccc(O)cc13)-c1cc3c(c(=O)n1C2)COC(=O)[C@]3(O)CC + Nc1ccc(C#CCN(C(=O)Cc2ncc(C(F)(F)F)cc2C(F)(F)F)c2ccc(F)cc2)nn1 was tested. Which viability, T/C did it give?
A: Its viability, T/C is 67.7%.

Q: CCc1c2c(nc3ccc(O)cc13)-c1cc3c(c(=O)n1C2)COC(=O)[C@]3(O)CC + Cc1cccc(N(C)C(=O)C2C(O)CCN2c2nc(C)cc(C(F)(F)F)c2C#N)c1 was tested. Which viability, T/C did it give?
A: Its viability, T/C is 64.8%.

Q: Which viability, T/C does the source give for C=CCn1c(=O)c2cnc(Nc3ccc(N4CCN(C)CC4)cc3)nc2n1-c1cccc(C(C)(C)O)n1 + Nc1ccc(C#CCN(C(=O)Cc2ncc(C(F)(F)F)cc2C(F)(F)F)c2ccc(F)cc2)nn1 here?
A: The viability, T/C was 94.1%.

Same assay, conditions: second compound 10 µM; first compound 0.01 µM; active compounds read low

Q: Which viability, T/C does the source give for CCc1c2c(nc3ccc(O)cc13)-c1cc3c(c(=O)n1C2)COC(=O)[C@]3(O)CC + Nc1ccc(C#CCN(C(=O)Cc2ncc(C(F)(F)F)cc2C(F)(F)F)c2ccc(F)cc2)nn1 here?
A: Its viability, T/C is 55.2%.

Q: For CCc1c2c(nc3ccc(O)cc13)-c1cc3c(c(=O)n1C2)COC(=O)[C@]3(O)CC + Cc1cccc(N(C)C(=O)C2C(O)CCN2c2nc(C)cc(C(F)(F)F)c2C#N)c1, which viability, T/C is on record?
A: The viability, T/C was 68.3%.
